# Data as given in US12297194B2, “N2-phenylpyrimidine-2,4-diamine compounds, and preparation methods and methods of use thereof” (BRIDGE BIOTHERAPEUTICS, INC., priority 2021, dated 2025).
# How the values were obtained:
# Format in all cases: cell-based, murine
# Ba/F3 EGFR Wild-type = Ba/F3 EGFR Wild-type (Homo sapiens, UniProt P00533); assay: CellTiter-Glo cell viability, Ba/F3 EGFR wild-type cells; conditions: 72 hours, read-out: Ba/F3 EGFR mutant cell (IC50, nM) WT
# How it was run: (§1)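 Steps: seed 2500 Ba/F3 cells per well; after 24 h add compound, 0, 0.3, 0.9, 2.7, 8.2, 24.7, 74.1, 222.2, 666.7, 2000 nM; incubate 72 h; equilibrate 30 min at ambient temperature; add CellTiter-Glo, shake 10 min; read luminescence; derive IC50.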
# [1] = target: Ba/F3 EGFR L858R/C797S mutants (Homo sapiens, UniProt P00533, C797S/L858R, cells depend on it); assay: CellTiter-Glo cell viability, Ba/F3 EGFR L858R/C797S cells; conditions: 72 hours, read-out: Ba/F3 EGFR mutant cell (IC50, nM) L/C
# How it was run: as §1
# [2] = target: Ba/F3 EGFR L858R/T790M/C797S mutants (Homo sapiens, UniProt P00533, T790M/C797S/L858R, cells depend on it); assay: CellTiter-Glo cell viability, Ba/F3 EGFR L858R/T790M/C797S cells; conditions: 72 hours, read-out: Ba/F3 EGFR mutant cell (IC50, nM) L/T/C
# How it was run: as §1
# [3] = target: Ba/F3 EGFR Del19/T790M mutants (Homo sapiens, UniProt P00533, T790M, cells depend on it, form not given); assay: CellTiter-Glo cell viability, Ba/F3 EGFR Del19/T790M cells; conditions: 72 hours, read-out: Ba/F3 EGFR mutant cell (IC50, nM) D/T
# Method: In order to evaluate an inhibitory ability on wild-type Ba/F3 EGFR and Ba/F3 EGFR mutations in Ba/F3 cell lines by the compounds of Formula 1, the experiment was carried out as described below.
# The measurement of activities on Ba/F3 cells harboring wild-type EGFR and EGFR mutants by the compounds of the present invention were determined utilizing the CELLTITER-GLO™ system from Promega, as follows. The CELLTITER-GLO™ assay is a method for measuring the ATP present in cells to determine the cell viability. Ba/F3 EGFR wild-type and Ba/F3 EGFR L858R/C797S (L/C), Ba/F3 EGFR L858R/T790M/C797S (L/T/C), Ba/F3 EGFR Del19/T790M (D/T), Ba/F3 EGFR Del19/C797S (D/C), Ba/F3 EGFR Del19/T790M/C797S (D/T/C) mutant cell lines were maintained in RPMI1640, containing […], 1% penicillin-streptomycin, […] puromycin. Cells were grown in a humidified incubator at 37° C. with […].
# The analysis of an EGFR inhibitory activity by the compounds was carried out in accordance with the analysis reaction recipe below.
# 2500 cells/90 μL were seeded in 96 well cell culture plate, and after 24 hours, treated with the compounds represented by Formula 1 in concentrations of 0, 0.3, 0.9, 2.7, 8.2, 24.7, 74.1, 222.2, 666.7, 2000 (nM). After the reaction of 72 hours, the plate was incubated for 30 minutes at ambient temperature, and then, was further treated with 100 μL of the CELLTITER-GLO™ reagent and was shaken for 10 minutes at ambient temperature. Finally, measurement of the luminescence values were obtained using the SPECTRAMAX™ iD3 (Molecular Devices), and the IC50 values of the compound were analyzed using the GraphPad Prism program (version 9.0.2, GraphPad Software, Inc.).
# [4] = target: Ba/F3 EGFR Del19/C797S mutants (Homo sapiens, UniProt P00533, C797S, cells depend on it, form not given); assay: CellTiter-Glo cell viability, Ba/F3 EGFR Del19/C797S cells; conditions: 72 hours, read-out: Ba/F3 EGFR mutant cell (IC50, nM) D/C
# How it was run: as §1
# [5] = target: Ba/F3 EGFR Del19/T790M/C797S mutants (Homo sapiens, UniProt P00533, T790M/C797S, cells depend on it, form not given); assay: CellTiter-Glo cell viability, Ba/F3 EGFR Del19/T790M/C797S cells; conditions: 72 hours, read-out: Ba/F3 EGFR mutant cell (IC50, nM) D/T/C
# How it was run: as §1
# Sequence of Ba/F3 EGFR L858R/T790M/C797S mutants (P00533 whole entry T790M/C797S/L858R): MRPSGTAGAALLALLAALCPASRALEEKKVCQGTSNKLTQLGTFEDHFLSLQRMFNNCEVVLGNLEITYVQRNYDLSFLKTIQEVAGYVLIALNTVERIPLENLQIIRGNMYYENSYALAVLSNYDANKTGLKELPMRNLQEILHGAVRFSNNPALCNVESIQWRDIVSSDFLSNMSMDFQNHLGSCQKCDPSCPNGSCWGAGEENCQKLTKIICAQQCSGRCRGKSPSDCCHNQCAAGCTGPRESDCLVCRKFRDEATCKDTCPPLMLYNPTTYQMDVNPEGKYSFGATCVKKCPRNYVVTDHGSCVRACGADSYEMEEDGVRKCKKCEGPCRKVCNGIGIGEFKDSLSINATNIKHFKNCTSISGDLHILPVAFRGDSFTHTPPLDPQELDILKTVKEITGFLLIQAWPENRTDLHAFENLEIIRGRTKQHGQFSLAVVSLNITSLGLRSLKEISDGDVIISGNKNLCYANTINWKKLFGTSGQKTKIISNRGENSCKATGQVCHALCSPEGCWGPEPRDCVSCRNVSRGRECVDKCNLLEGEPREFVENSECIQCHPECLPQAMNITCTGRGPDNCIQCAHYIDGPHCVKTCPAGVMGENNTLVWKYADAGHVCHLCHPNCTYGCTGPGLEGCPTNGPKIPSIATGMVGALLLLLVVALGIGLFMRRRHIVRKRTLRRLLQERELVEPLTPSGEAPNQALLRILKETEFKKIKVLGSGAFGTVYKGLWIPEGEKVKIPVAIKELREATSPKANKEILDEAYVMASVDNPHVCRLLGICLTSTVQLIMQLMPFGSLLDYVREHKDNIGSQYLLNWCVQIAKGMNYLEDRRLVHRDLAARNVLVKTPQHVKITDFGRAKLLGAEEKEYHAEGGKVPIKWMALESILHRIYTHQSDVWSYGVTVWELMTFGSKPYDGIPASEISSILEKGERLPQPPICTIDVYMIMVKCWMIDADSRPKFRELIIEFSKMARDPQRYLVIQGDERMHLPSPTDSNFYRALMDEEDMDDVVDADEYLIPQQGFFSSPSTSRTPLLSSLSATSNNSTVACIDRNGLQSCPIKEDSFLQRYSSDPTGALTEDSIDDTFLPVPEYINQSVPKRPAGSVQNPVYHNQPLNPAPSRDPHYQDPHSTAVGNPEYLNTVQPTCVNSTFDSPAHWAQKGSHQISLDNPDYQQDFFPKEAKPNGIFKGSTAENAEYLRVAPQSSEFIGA
# Sequence of Ba/F3 EGFR L858R/C797S mutants (P00533 whole entry C797S/L858R): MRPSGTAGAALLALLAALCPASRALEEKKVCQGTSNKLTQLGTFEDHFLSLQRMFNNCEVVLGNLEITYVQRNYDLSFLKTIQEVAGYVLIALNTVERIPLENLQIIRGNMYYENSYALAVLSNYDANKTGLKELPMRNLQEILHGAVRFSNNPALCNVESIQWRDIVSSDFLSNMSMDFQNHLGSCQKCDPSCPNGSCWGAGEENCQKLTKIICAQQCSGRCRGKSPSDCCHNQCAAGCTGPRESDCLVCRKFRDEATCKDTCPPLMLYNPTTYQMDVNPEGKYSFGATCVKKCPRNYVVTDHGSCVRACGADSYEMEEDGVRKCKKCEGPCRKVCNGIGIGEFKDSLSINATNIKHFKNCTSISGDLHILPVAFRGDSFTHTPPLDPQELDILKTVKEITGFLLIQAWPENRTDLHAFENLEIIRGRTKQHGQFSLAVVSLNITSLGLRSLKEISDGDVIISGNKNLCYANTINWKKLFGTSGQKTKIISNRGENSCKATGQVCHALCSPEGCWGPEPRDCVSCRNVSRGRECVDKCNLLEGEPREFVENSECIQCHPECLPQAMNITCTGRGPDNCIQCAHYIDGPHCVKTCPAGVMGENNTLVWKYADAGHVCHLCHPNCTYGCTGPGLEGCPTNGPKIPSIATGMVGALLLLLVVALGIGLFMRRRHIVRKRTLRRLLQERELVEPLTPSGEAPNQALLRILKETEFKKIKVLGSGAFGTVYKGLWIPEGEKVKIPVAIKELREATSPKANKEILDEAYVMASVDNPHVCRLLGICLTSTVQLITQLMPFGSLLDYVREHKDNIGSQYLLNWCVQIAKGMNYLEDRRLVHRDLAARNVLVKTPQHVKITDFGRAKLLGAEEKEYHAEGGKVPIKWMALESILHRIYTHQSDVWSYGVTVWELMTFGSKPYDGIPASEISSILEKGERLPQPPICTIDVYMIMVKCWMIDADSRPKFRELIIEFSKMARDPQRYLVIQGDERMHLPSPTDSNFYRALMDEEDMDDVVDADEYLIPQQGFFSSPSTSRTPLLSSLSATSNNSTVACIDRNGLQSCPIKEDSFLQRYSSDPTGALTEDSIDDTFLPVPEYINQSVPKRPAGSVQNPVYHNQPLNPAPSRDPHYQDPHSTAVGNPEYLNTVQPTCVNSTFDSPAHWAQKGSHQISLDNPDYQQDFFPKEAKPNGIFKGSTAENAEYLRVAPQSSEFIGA
# Sequence of Ba/F3 EGFR Del19/T790M/C797S mutants (P00533 with tags, fused parts or gaps DEL746-750/T790M/C797S, form open): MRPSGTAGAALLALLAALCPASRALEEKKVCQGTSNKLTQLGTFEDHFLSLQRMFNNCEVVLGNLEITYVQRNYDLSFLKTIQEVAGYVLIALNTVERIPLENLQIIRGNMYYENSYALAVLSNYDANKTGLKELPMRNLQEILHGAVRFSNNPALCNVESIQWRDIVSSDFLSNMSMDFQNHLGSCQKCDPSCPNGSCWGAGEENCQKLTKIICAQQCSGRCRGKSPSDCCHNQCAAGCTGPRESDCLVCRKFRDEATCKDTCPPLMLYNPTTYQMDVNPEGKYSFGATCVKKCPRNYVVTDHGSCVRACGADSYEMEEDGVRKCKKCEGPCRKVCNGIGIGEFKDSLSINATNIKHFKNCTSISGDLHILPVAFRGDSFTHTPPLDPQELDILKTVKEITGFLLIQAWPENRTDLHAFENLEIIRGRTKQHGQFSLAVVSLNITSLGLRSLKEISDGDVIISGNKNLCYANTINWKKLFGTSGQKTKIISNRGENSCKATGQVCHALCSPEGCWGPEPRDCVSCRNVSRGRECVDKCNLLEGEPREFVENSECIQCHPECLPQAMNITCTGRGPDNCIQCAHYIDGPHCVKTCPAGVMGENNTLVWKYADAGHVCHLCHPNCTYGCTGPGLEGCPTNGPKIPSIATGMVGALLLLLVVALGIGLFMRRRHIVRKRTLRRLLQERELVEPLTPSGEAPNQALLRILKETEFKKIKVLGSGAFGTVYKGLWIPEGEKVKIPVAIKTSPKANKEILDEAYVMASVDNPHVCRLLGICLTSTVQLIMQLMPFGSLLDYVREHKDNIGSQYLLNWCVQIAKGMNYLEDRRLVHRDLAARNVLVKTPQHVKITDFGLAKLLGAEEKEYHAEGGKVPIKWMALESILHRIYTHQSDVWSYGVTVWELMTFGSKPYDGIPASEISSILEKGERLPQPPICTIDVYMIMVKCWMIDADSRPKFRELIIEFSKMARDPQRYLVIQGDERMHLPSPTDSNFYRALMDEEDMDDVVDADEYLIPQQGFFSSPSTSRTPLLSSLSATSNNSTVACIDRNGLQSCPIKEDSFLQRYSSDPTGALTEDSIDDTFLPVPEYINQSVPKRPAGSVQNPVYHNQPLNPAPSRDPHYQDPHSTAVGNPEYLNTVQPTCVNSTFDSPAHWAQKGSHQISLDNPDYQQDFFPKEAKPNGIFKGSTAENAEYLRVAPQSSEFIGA
# Sequence of Ba/F3 EGFR Del19/T790M mutants (P00533 with tags, fused parts or gaps DEL746-750/T790M, form open): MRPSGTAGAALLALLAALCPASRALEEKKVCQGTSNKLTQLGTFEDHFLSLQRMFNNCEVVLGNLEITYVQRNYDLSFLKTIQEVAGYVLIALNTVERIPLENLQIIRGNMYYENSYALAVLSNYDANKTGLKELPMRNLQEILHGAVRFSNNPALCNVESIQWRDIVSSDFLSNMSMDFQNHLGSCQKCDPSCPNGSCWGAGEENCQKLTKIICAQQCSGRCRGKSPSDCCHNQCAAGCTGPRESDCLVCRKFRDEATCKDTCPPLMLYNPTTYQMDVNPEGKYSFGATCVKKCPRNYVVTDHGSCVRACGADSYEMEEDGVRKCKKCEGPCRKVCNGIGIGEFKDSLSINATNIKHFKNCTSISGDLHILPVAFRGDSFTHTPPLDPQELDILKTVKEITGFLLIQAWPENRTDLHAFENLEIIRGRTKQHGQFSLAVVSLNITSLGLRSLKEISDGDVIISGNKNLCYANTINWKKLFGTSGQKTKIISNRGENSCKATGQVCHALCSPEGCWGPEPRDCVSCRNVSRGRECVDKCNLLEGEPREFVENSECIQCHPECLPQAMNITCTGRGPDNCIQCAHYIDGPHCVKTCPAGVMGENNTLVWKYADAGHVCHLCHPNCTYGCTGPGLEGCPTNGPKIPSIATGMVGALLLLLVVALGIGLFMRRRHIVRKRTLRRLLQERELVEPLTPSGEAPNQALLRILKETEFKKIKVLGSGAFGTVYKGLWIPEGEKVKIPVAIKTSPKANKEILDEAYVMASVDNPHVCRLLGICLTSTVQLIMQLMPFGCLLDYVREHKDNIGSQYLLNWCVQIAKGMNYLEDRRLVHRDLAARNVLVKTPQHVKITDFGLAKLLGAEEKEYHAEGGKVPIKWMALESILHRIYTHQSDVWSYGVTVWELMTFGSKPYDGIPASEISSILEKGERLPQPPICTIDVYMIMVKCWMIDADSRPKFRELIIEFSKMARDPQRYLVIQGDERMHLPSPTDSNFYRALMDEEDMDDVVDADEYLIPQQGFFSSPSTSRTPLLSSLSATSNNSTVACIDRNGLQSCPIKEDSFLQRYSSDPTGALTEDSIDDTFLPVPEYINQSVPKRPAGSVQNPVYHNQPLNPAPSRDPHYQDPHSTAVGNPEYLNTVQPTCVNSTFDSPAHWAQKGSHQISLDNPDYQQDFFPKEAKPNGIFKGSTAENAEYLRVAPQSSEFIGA
SMILES,GI50 (Ba/F3 EGFR Wild-type) [nM],GI50 [1] [nM],GI50 [2] [nM],GI50 [3] [nM],GI50 [4] [nM],GI50 [5] [nM]
"COc1cc(N2CCC(N3CCN(C)CC3)CC2)c(C)cc1Nc1ncc(Br)c(Nc2ccc3nccnc3c2NS(=O)(=O)C2CC2)n1 [Example A19, N-(6-((5-bromo-2-((2-methoxy-5-methyl-4-(4-(4-methylpiperazin-1-yl)piperidin-1-yl)phenyl)amino)pyrimidin-4-yl)amino)quinoxalin-5-yl)cyclopropanesulfonamide]",395,80,43,6,66,24
"COc1cc(N2CCC(N3CCN(C)CC3)CC2)c(C)cc1Nc1ncc(Br)c(Nc2cccc(OC)c2NS(C)(=O)=O)n1 [Example C1, N-(2-((5-bromo-2-((2-methoxy-5-methyl-4-(4-(4-methylpiperazin-1-yl)piperidin-1-yl)phenyl)amino)pyrimidin-4-yl)amino)-6-methoxyphenyl)methanesulfonamide]",408,63,12,6,18,13
"CCCc1cc(Nc2ncc(F)c(Nc3ccc4nccnc4c3NS(C)(=O)=O)n2)c(OC)cc1N1CCC(N2CCN(C)CC2)CC1 [Example A32, N-(6-((5-fluoro-2-((2-methoxy-4-(4-(4-methylpiperazin-1-yl)piperidin-1-yl)-5-propylphenyl)amino)pyrimidin-4-yl)amino)quinoxalin-5-yl)methanesulfonamide]",603,51,229,27,11,91
"COc1cc(N2CCNCC2)ccc1Nc1ncc(Cl)c(Nc2ccc3nccnc3c2NS(C)(=O)=O)n1 [Example B16, N-(6-((5-chloro-2-((2-methoxy-4-(piperazin-1-yl)phenyl)amino)pyrimidin-4-yl)amino)quinoxalin-5-yl)methanesulfonamide]",1890,778,823,402,361,741
"CCc1cc(Nc2ncc(Cl)c(Nc3ccc4c(c3N(C)S(C)(=O)=O)OCCO4)n2)c(OC)cc1N1CCC(N2CCOCC2)CC1 [Example C30, N-(6-((5-chloro-2-((5-ethyl-2-methoxy-4-(4-morpholinopiperidin-1-yl)phenyl)amino)pyrimidin-4-yl)amino)-2,3-dihydrobenzo[b][1,4]dioxin-5-yl)-N-methylmethanesulfonamide]",664,38,35,10,6,13
"COc1cc(N2CCC(N3CCN(C)CC3)CC2)c(C)cc1Nc1ncc(Cl)c(Nc2ccc3nccnc3c2NS(C)(=O)=O)n1 [Example A1, N-(6-((5-chloro-2-((2-methoxy-5-methyl-4-(4-(4-methylpiperazin-1-yl)piperidin-1-yl)phenyl)amino)pyrimidin-4-yl)amino)quinoxalin-5-yl)methanesulfonamide]",312,33,17,7,17,6
"CCc1cc(Nc2ncc(Br)c(Nc3ccc4nccnc4c3N(C)S(C)(=O)=O)n2)c(OC)cc1N1CC2CCC1CN2C(C)C (stereo not drawn) [Example B30, N-(6-((5-bromo-2-((5-ethyl-4-(5-isopropyl-2,5-diazabicyclo[2.2.2]octan-2-yl)-2-methoxyphenyl)amino)pyrimidin-4-yl)amino)quinoxalin-5-yl)-N-methylmethanesulfonamide]",233,23,71,7,11,2
"CCc1cc(Nc2ncc(Cl)c(Nc3ccc4nccnc4c3NS(C)(=O)=O)n2)c(OC)cc1N1CCC(N2CCCC2)CC1 [Example A34, N-(6-((5-chloro-2-((5-ethyl-2-methoxy-4-(4-(pyrrolidin-1-yl)piperidin-1-yl)phenyl)amino)pyrimidin-4-yl)amino)quinoxalin-5-yl)methanesulfonamide]",> 2000,16,13,5,1,4
"COc1cc(N2CCN([C@@H]3CCN(C)C[C@@H]3F)CC2)ccc1Nc1ncc(Cl)c(Nc2ccc3nccnc3c2NS(C)(=O)=O)n1 [Example A36, N-(6-((5-chloro-2-((4-(4-((3S,4R)-3-fluoro-1-methylpiperidin-4-yl)piperazin-1-yl)-2-methoxyphenyl)amino)pyrimidin-4-yl)amino)quinoxalin-5-yl)methane sulfonamide]",657,267,485,73,111,241
"COc1cc(N2CCC(N3CCOCC3)CC2)c(C)cc1Nc1ncc(Br)c(Nc2ccc3nccnc3c2NS(C)(=O)=O)n1 [Example A23, N-(6-((5-bromo-2-((2-methoxy-5-methyl-4-(4-morpholinopiperidin-1-yl)phenyl)amino)pyrimidin-4-yl)amino)quinoxalin-5-yl)methanesulfonamide]",416,114,49,41,51,16
"CCc1cc(Nc2ncc(Br)c(Nc3cccc(OC)c3N(C)S(C)(=O)=O)n2)c(OC)cc1N1CCC(N2CCN(C)CC2)CC1 [Example C29, N-(2-((5-bromo-2-((5-ethyl-2-methoxy-4-(4-(4-methylpiperazin-1-yl)piperidin-1-yl)phenyl)amino)pyrimidin-4-yl)amino)-6-methoxyphenyl)-N-methylmethane sulfonamide]",669,76,21,7,5,5
"CCCc1cc(Nc2ncc(Br)c(Nc3ccc4nccnc4c3NS(C)(=O)=O)n2)c(OC)cc1N1CCC(N(C)C)CC1 [Example B13, N-(6-((5-bromo-2-((4-(4-(dimethylamino)piperidin-1-yl)-2-methoxy-5-propylphenyl)amino)pyrimidin-4-yl)amino)quinoxalin-5-yl)methanesulfonamide]",468,114,22,13,41,60
"CCc1cc(Nc2ncc(Cl)c(Nc3ccc(OC)cc3NS(C)(=O)=O)n2)c(OC)cc1N1CCC(N2CCOCC2)CC1 [Example C14, N-(2-((5-chloro-2-((5-ethyl-2-methoxy-4-(4-morpholinopiperidin-1-yl)phenyl)amino)pyrimidin-4-yl)amino)-5-methoxyphenyl) methanesulfonamide]",415,22,21,2,4,4
"COc1cc(N2CCC(N3CCN(C)CC3)CC2)c(C)cc1Nc1ncc(C)c(Nc2ccc3nccnc3c2NS(C)(=O)=O)n1 [Example A21, N-(6-((2-((2-methoxy-5-methyl-4-(4-(4-methylpiperazin-1-yl)piperidin-1-yl)phenyl)amino)-5-methylpyrimidin-4-yl)amino)quinoxalin-5-yl)methane sulfonamide]",460,52,103,24,23,58
